According to patent US10208056B2, “Condensed tricyclic compounds as protein kinase inhibitors” (FUNDACIÓN DEL SECTOR PÚBLICO ESTATAL CENTRO NACIONAL DE …, priority 2015, dated 2019):

Tests used:
SW620 cells [1] = test: Colony formation assay; type: cell-based, human; conditions: SW620 cells treated 11 days
Experimental: The in vitro potency of the compounds was measured by colony formation assays. SW620 cells in logarithmic growth phase are plated at 800 cells per well in 6-well plates (Solmeglas 13118) in RPMI media (Sigma-Aldrich R6504) supplemented with 10% foetal bovine serum (Sigma-Aldrich F7524), Penicillin/Streptomycin solution diluted 1:100 (Gibco 15070-063), and fungizone (Gibco, 15290-018), and allowed to adhere overnight at 37° C. in 5% CO2. Compounds are then added to the cell media from a final concentration of 10 μM in 10-fold serial dilutions and the cells are incubated at 37° C. in 5% CO2. Every three days the medium is changed by fresh medium and compounds are added again. After 11 days, colonies are washed with PBS and fixed in 0.5% crystal violet (Sigma-Aldrich Ref. V5265), 6% glutaraldehide (Sigma-Aldrich Ref. G5882) for 30 minutes. After extensive washing, colonies are dissolved in 2 ml of 10% glacial acetic acid (Sigma-Aldrich Ref. 537020) and absorbance at 590 nm is measured in the Victor 1420 Multilabel Counter (Perkin Elmer). The absorbance in cells treated with DMSO is taken as hundred percent of proliferation. The percentage of proliferation is finally plotted against concentration for each compound and EC50s for colony formation inhibition are calculated using ActivityBase from IDBS.

A549 = test: Combination assay, A549; type: cell-based
Experimental: (§1) The combination index (CI) of combinations of certain example compounds and various chemotherapeutic agents in the CellTitetI-Glo® in vitro cell proliferation assays may be tested. A combination index score is calculated by the Chou and Talalay method (CalcuSyn software, Biosoft). The strength of synergy is scored using the ranking system Chou and Talalay: CI less than 0.8 indicates synergy, CI between 0.8 and 1.2 indicates additivity and CI greater than 1.2 indicates antagonism.
(§2) The EC50 values of representative combinations are also calculated. The individually measured EC50 values of the chemotherapeutic agent and the example compounds are compared to the EC50 value of the combination. The cell lines are characterised by tumor type. Combination assays are performed as described in: “Pim 1 kinase inhibitor ETP-45299 suppresses cellular proliferation and synergizes with PI3K inhibition”. Blanco-Aparicio, Carmen; Collazo, Ana Maria Garcia; Oyarzabal, Julen; Leal, Juan F.; Albaran, Maria Isabel; Lima, Francisco Ramos; Pequeno, Belen; Ajenjo, Nuria; Becerra, Mercedes; Alfonso, Patricia; Reymundo, Maria Isabel; Palacios, Irene; Mateos, Genoveva; Quinones, Helena; Corrionero, Ana; Carnero, Amancio; Pevarello, Paolo; Lopez, Ana Rodriguez; Fominaya, Jesus; Pastor, Joaquin; Bischoff, James R. Cancer Letters (Shannon, Ireland) 2011, 300(2), 145-153

SKMEL19 = test: Combination assay, SKMEL19; type: cell-based
Experimental: as §1, §2

SW620 cells [2] = test: Cell cycle assay (propidium iodine, flow cytometry); type: cell-based, human; conditions: SW620, 24 h, increasing concentrations
Experimental: Compounds can be screened for their ability to affect the cell cycle using a propidium iodine assay and analysis by flow cytometry. SW620 are plated at 500000 cells per well in 6-well plates (Solmeglas 13118) in RPMI media (Sigma-Aldrich R6504) supplemented with 10% foetal bovine serum (Sigma-Aldrich F7524), Penicillin/Streptomycin solution diluted 1:100 (Gibco 15070-063), and fungizone (Gibco, 15290-018), and allowed to adhere overnight at 37° C. in 5% CO2. Cells are then treated 24 h hours with compounds at final concentration of 5, 2.5, 1 and 0.5 μM. Cells are collected by trypsinization and centrifugation at 1250 rpm and washed with PBS (Sigma Ref. D8537). Cells are fixated with 70% cold ethanol (Merck Ref 100983)) and kept at 4° C. at least for 12 hours. After centrifugation, cells are washed with PBS and DNA is stained with a solution of 0.2 mg/mL RNAase (Quiagen Ref 1007885) and 0.02 mg/mL propidium iodine (Sigma Ref P4864). After 30 minutes incubation at room temperature in the dark cells are analyzed by FACSCalibur™ (BD biosciences) and Flowjo software.

MDAMB231 = test: Combination assay, MDAMB231; type: cell-based
Experimental: as §1, §2

[3] = A549, combination with Elesclomol
[4] = SKMEL19, combination with Crizotinib
[5] = SKMEL19, combination with Elesclomol
[6] = MDAMB231, combination with Elesclomol

CCn1c(C(N)=O)cc2c1-c1ccncc1OC2(C)C [Example 43]
EC50 (SW620 cells [1]; Homo sapiens, SW-620, 264 h, read-out: mean EC50, colony forming assay): 0.051 ± 0.069 µM | effect in colony forming assay (SW620 cells [1]): dose-dependent effect | Combination index (CI) (A549; [3]): 0.63 | Synergy (A549; [3]): ++ (0.3 < CI < 0.7 (++)) | GI50 (A549; Homo sapiens, A549, example compound alone, read-out: CDK8 inh GI50): 5 µM | GI50 (SKMEL19; Homo sapiens, SK-MEL19, SKMEL19, example compound alone, read-out: CDK8 inh GI50): 1.25 µM | Combination index (CI) (SKMEL19; [4]): 0.55 | Synergy (SKMEL19; [4]): ++ (0.3 < CI < 0.7 (++)) | Combination index (CI) (SKMEL19; [5]): 0.49 | Synergy (SKMEL19; [5]): ++ (0.3 < CI < 0.7 (++)) | effect on cell cycle (SW620 cells [2]): induced G2M arrest and apoptosis | GI50 (MDAMB231; Homo sapiens, MDA-MB-231, MDAMB231, example compound alone, read-out: CDK8 inh GI50): 5 µM | Combination index (CI) (MDAMB231; [6]): 0.59 | Synergy (MDAMB231; [6]): ++ (0.3 < CI < 0.7 (++))
